Experimental findings from ChEMBL document CHEMBL2384920, “Ester prodrugs of acyclic nucleoside thiophosphonates compared to phosphonates: synthesis, antiviral activity and decomposition study” (Eur J Med Chem, 2013) are described below.

Series [1] can be described thus: Prodrug conversion assessed as snake venome phosphodiesterase-mediated thiophosphonate monoester formation at 5 mM. In kind it is ADME. The conditions noted are these: crotalus adamanteus, 5000 µM.
A short description of series [2]: Cytotoxicity against human HEL cells assessed as effect on cell morphology. In kind it is cell-based.
Series [3] concerns Vaccinia virus. The series is described as follows: Antiviral activity against Vaccinia virus infected in human HEL cells assessed as reduction of virus-induced cytopathicity measured at day 3 by microscopic analysis. The series is classed as functional, organism-based. As to conditions: Orthopoxvirus vaccinia, 72 h. (In general: Damage to the host cells serves as the signal in cytopathic effect assays.)

Another series relates to Human alphaherpesvirus 2. Briefly: Antiviral activity against Human simplex virus 2 G infected in human HEL cells assessed as reduction of virus-induced cytopathicity measured at day 3 by microscopic analysis. The series is classed as functional, organism-based. The conditions noted are these: Human alphaherpesvirus 2, strain G, 72 h.
Series [4] relates to Human alphaherpesvirus 1. The series is described as follows: Antiviral activity against thymidine kinase-deficient Human simplex virus 1 KOS infected in human HEL cells assessed as reduction of virus-induced cytopathicity measured at day 3 by microscopic analysis. The series is classed as functional, organism-based. As to conditions: Human alphaherpesvirus 1, KOS, 72 h.
Series [5] in a line: Cytotoxicity against mock-infected human CEM cells assessed as growth inhibition. In kind it is cell-based, CCRF-CEM.
Series [6] deals with Human alphaherpesvirus 1. Briefly: Antiviral activity against Human simplex virus 1 KOS infected in human HEL cells assessed as reduction of virus-induced cytopathicity measured at day 3 by microscopic analysis. In kind it is functional, organism-based. As to conditions: Human alphaherpesvirus 1, KOS, 72 h.
For series [7], the system named is Human immunodeficiency virus 2. The series is described as follows: Antiviral activity against wild type HIV-2 ROD infected in human CEM cells assessed as inhibition of syncytia formation after 4 days by microscopic analysis. As to conditions: Human immunodeficiency virus 2, ISOLATE ROD, CCRF-CEM, 96 h. The series is classed as functional, organism-based.
The test system of series [8] is Human immunodeficiency virus 1. Briefly: Antiviral activity against wild type HIV-1 3B infected in human CEM cells assessed as inhibition of syncytia formation after 4 days by microscopic analysis. In kind it is functional, organism-based. The conditions noted are these: Human immunodeficiency virus 1, 3B, CCRF-CEM, 96 h.
A further series deals with Hepatitis B virus. The series is described as follows: Antiviral activity against wild type HBV transfected in human HuH7 cells assessed as reduction of viral DNA level after 7 days by qPCR analysis. The series is classed as functional, organism-based. The conditions noted are these: Huh-7, 168 h. (In qPCR the cycle at which signal appears reflects the starting amount.)

Series [9] can be described thus: Cytotoxicity against human HuH7 cells assessed as reduction of cell density. The series is classed as cell-based, Huh-7.
A short description of series [10]: Prodrug conversion assessed as snake venome phosphodiesterase-mediated PMPA formation at 5 mM. The conditions noted are these: crotalus adamanteus, 5000 µM. In kind it is ADME.
Series [11] is described as follows: Half life of the compound in presence of carboxyesterase. In kind it is physicochemical.
Series [12] in a line: Prodrug conversion assessed as snake venome phosphodiesterase-mediated (R)-9-[2-(Thiophosphonomethoxy)propyl]adenine disodium salt formation at 5 mM. As to conditions: crotalus adamanteus, 5000 µM. In kind it is ADME.
Series [13] is described as follows: Prodrug conversion assessed as snake venome phosphodiesterase-mediated PMEA formation at 5 mM. The series is classed as ADME. As to conditions: crotalus adamanteus, 5000 µM.
In series [14] the test system is Vaccinia virus. The series is described as follows: Antiviral activity against Vaccinia virus infected in human HEL cells assessed as reduction of virus-induced cytopathicity at 200 uM measured at day 3 by microscopic analysis. The series is classed as functional, organism-based. The conditions noted are these: Orthopoxvirus vaccinia.
Series [15] in a line: Prodrug conversion assessed as snake venome phosphodiesterase-mediated phosphonate monoester formation at 5 mM. The series is classed as ADME. The conditions noted are these: crotalus adamanteus, 5000 µM.
A short description of series [16]: Stability of the compound in DMEM assessed as half life of first step of hydrolysis. The series is classed as physicochemical.
A short description of series [17]: Stability of the compound in RPMI-1640 assessed as half life of first step of hydrolysis. The series is classed as physicochemical.

Active and inactive are the calls of the source. Some results are limits rather than exact numbers.

As to `CC(C)(C)C(=O)OCOP(=S)(COCCn1cnc2c(N)ncnc21)OCOC(=O)C(C)(C)C`, the Drug metabolism result in series [1] is listed as “Active”. For the same compound, the MCC in series [2] was above 50 µM. For the same compound, the half-maximal effective concentration (EC50) in the series on Vaccinia virus [3] is 29000 nM; in the series on Human alphaherpesvirus 2, 3900 nM; with Human alphaherpesvirus 1 [4], 3900 nM; in the series with Human alphaherpesvirus 1 [6], 3900 nM; in [7], at least 200 nM; in series [8], at least 200 nM. Moreover, in the series on Hepatitis B virus, the half-maximal effective concentration (EC50) was 1450 nM. The CC50 in series [5] was 2000 nM; in [9], above 25000 nM.

On to `CC(C)OC(=O)OCOP(=S)(CO[C@H](C)Cn1cnc2c(N)ncnc21)OCOC(=O)OC(C)C`, for which the Drug metabolism result in series [1] is on record as “Active”. Further, the MCC in series [2] was above 50 µM. Further, the EC50 in the series on Vaccinia virus [3] was above 50000 nM; in the series with Human alphaherpesvirus 2, above 50000 nM; with Human alphaherpesvirus 1 [4] it was above 50000 nM; with Human alphaherpesvirus 1 [6], above 50000 nM; in [7], 130 nM; in series [8] it was 92 nM. In addition, the EC50 in the series with Hepatitis B virus turned out to be 1140 nM. In addition, the 50% cytotoxic concentration (CC50) in [5] and in [9] was above 25000 nM in each case.

As to `CC(C)OC(=O)OCOP(=O)([O-])CO[C@H](C)Cn1cnc2c(N)ncnc21.[Na+]`, the Drug metabolism result in series [10] is “Active”. The half-life in [11] is above 7 h.

As to `CC(C)OC(=O)OCOP([O-])(=S)CO[C@H](C)Cn1cnc2c(N)ncnc21.[Na+]` (some centres undefined), in [12], the Drug metabolism result was “Active”.

For the compound `CC(C)(C)C(=O)OCOP(=O)([O-])COCCn1cnc2c(N)ncnc21.[Na+]`, the Drug metabolism entry in series [13] is “Active”.

As to `Nc1ncnc2c1ncn2CCOCP(=O)(O)O`, the result in the series with Vaccinia virus [14] was inactive.

In the case of `Nc1ncnc2c1ncn2CCOCP(=O)(O)S` (centres undefined), in the series with Vaccinia virus [14], the result was Active.

Take `Nc1nc2c(ncn2COCCO)c(=O)[nH]1` [ACYCLOVIR]: the MCC in series [2] is above 250 µM. Further, the EC50 with Vaccinia virus [3] is above 250000 nM; in the series with Human alphaherpesvirus 1 [4] it was 29000 nM.

Take `CC(C)(C)C(=O)OCOP(=O)(COCCn1cnc2c(N)ncnc21)OCOC(=O)C(C)(C)C` [ADEFOVIR DIPIVOXIL]: in [15], the Drug metabolism result was “Active”. Further, the half-life in series [16] is 1 h; in [11] it was above 7 h; in series [17], 1 h. The MCC in [2] is above 50 µM. For the same compound, the concentration giving a half-maximal response (EC50) with Vaccinia virus [3] amounted to 4000 nM; with Human alphaherpesvirus 2, 200 nM; with Human alphaherpesvirus 1 [4], 200 nM; in the series on Human alphaherpesvirus 1 [6], 200 nM; in series [7], 62 nM; in series [8] it was 45 nM. In addition, the EC50 in the series with Hepatitis B virus turned out to be 830 nM. In addition, the half-maximal cytotoxic concentration (CC50) in [5] was 1600 nM; in series [9], above 25000 nM.

On to `Nc1ccn(C[C@@H](CO)OCP(=O)(O)O)c(=O)n1` [CIDOFOVIR], for which, in series [2], the MCC is above 250 µM.

As for `CC(C)OC(=O)OCOP(=O)(CO[C@H](C)Cn1cnc2c(N)ncnc21)OCOC(=O)OC(C)C` [TENOFOVIR DISOPROXIL], in series [15], the Drug metabolism result is listed as “Active”. In addition, the half-life in series [16] and in series [17] was 1 h in each case. Further, in series [2], the MCC is above 50 µM. Also, the EC50 in the series with Vaccinia virus [3] is above 50000 nM; in the series on Human alphaherpesvirus 2 it was 5800 nM; with Human alphaherpesvirus 1 [4] it was 9600 nM; with Human alphaherpesvirus 1 [6], 5800 nM; in series [7], 13 nM; in series [8], 16 nM. The EC50 in the series with Hepatitis B virus was 880 nM. Further, the CC50 in [5] and in [9] was above 25000 nM throughout.

Usually EC50 stands for the concentration that produces a half-maximal response. By CC50 is commonly meant the concentration at which the toxic effect on the cells reaches its halfway point. The term half-life denotes the time needed for the level to fall by half in the phase considered.
